≈ marks a conversion by molar mass, not a printed value.
Columns and labels:
Assay type in all cases: functional
Penicillium chrysogenum [1] = assay: Antifungal activity against Penicillium chrysogenum MTCC 161 at 500 ug/ml after 18 hr by cup-plate method; details: MTCC 161, 18 h, read-out: DIZ
Penicillium chrysogenum [2] = assay: Antifungal activity against Penicillium chrysogenum MTCC 161 after 24 hr by broth dilution method; details: MTCC 161, 24 h
Bacillus pumilus [3] = assay: Antibacterial activity against Bacillus pumilus MTCC 1456 at 100 ug/ml after 18 hr by cup-plate method; details: MTCC 1456, 18 h, read-out: DIZ
Penicillium chrysogenum [4] = assay: Antifungal activity against Penicillium chrysogenum MTCC 161 at 200 ug/ml after 18 hr by cup-plate method; details: MTCC 161, 18 h, read-out: DIZ
Bacillus pumilus [5] = assay: Antibacterial activity against Bacillus pumilus MTCC 1456 at 200 ug/ml after 18 hr by cup-plate method; details: MTCC 1456, 18 h, read-out: DIZ
Bacillus subtilis [6] = assay: Antibacterial activity against Bacillus subtilis MTCC 441 after 24 hr by broth dilution method; details: MTCC 441, 24 h
Pseudomonas fluorescens [7] = assay: Antibacterial activity against Pseudomonas fluorescens MTCC 2421 at 500 ug/ml after 18 hr by cup-plate method; details: MTCC 2421, 18 h, read-out: DIZ
Pseudomonas aeruginosa [8] = assay: Antibacterial activity against Pseudomonas aeruginosa MTCC 424 at 200 ug/ml after 18 hr by cup-plate method; details: MTCC 424, 18 h, read-out: DIZ
Escherichia coli [9] = assay: Antibacterial activity against Escherichia coli MTCC 1573 at 1500 ug/ml after 18 hr by cup-plate method; details: MTCC 1573, 18 h, read-out: DIZ
Staphylococcus aureus [10] = assay: Antibacterial activity against Staphylococcus aureus MTCC 1430 at 100 ug/ml after 18 hr by cup-plate method; details: MTCC 1430, 18 h, read-out: DIZ
Aspergillus niger [11] = assay: Antifungal activity against Aspergillus niger MTCC 2546 at 1500 ug/ml after 18 hr by cup-plate method; details: MTCC 2546, 18 h, read-out: DIZ
Penicillium chrysogenum [12] = assay: Antifungal activity against Penicillium chrysogenum MTCC 161 at 1500 ug/ml after 18 hr by cup-plate method; details: MTCC 161, 18 h, read-out: DIZ
Bacillus subtilis [13] = assay: Antibacterial activity against Bacillus subtilis MTCC 441 at 1000 ug/ml after 18 hr by cup plate method; details: MTCC 441, 18 h, read-out: DIZ
Bacillus subtilis [14] = assay: Antibacterial activity against Bacillus subtilis MTCC 441 at 500 ug/ml after 18 hr by cup plate method; details: MTCC 441, 18 h, read-out: DIZ
Micrococcus luteus [15] = assay: Antibacterial activity against Micrococcus luteus MTCC 1538 at 100 ug/ml after 18 hr by cup-plate method; details: MTCC 1538, 18 h, read-out: DIZ
Penicillium chrysogenum [16] = assay: Antifungal activity against Penicillium chrysogenum MTCC 161 at 100 ug/ml after 18 hr by cup-plate method; details: MTCC 161, 18 h, read-out: DIZ
Pseudomonas fluorescens [17] = assay: Antibacterial activity against Pseudomonas fluorescens MTCC 2421 after 24 hr by broth dilution method; details: MTCC 2421, 24 h
Staphylococcus aureus [18] = assay: Antibacterial activity against Staphylococcus aureus MTCC 1430 at 200 ug/ml after 18 hr by cup-plate method; details: MTCC 1430, 18 h, read-out: DIZ
Escherichia coli [19] = assay: Antibacterial activity against Escherichia coli MTCC 1573 at 200 ug/ml after 18 hr by cup-plate method; details: MTCC 1573, 18 h, read-out: DIZ
Bacillus subtilis [20] = assay: Antibacterial activity against Bacillus subtilis MTCC 441 at 100 ug/ml after 18 hr by cup plate method; details: MTCC 441, 18 h, read-out: DIZ
Pseudomonas fluorescens [21] = assay: Antibacterial activity against Pseudomonas fluorescens MTCC 2421 at 1000 ug/ml after 18 hr by cup-plate method; details: MTCC 2421, 18 h, read-out: DIZ
Pseudomonas fluorescens [22] = assay: Antibacterial activity against Pseudomonas fluorescens MTCC 2421 at 1500 ug/ml after 18 hr by cup-plate method; details: MTCC 2421, 18 h, read-out: DIZ
Bacillus subtilis [23] = assay: Antibacterial activity against Bacillus subtilis MTCC 441 at 1500 ug/ml after 18 hr by cup plate method; details: MTCC 441, 18 h, read-out: DIZ
Staphylococcus aureus [24] = assay: Antibacterial activity against Staphylococcus aureus MTCC 1430 at 1500 ug/ml after 18 hr by cup-plate method; details: MTCC 1430, 18 h, read-out: DIZ
Pseudomonas aeruginosa [25] = assay: Antibacterial activity against Pseudomonas aeruginosa MTCC 424 at 1000 ug/ml after 18 hr by cup-plate method; details: MTCC 424, 18 h, read-out: DIZ
Micrococcus luteus [26] = assay: Antibacterial activity against Micrococcus luteus MTCC 1538 after 24 hr by broth dilution method; details: MTCC 1538, 24 h
Aspergillus niger [27] = assay: Antifungal activity against Aspergillus niger MTCC 2546 at 1000 ug/ml after 18 hr by cup-plate method; details: MTCC 2546, 18 h, read-out: DIZ

C(=N\c1nc[nH]n1)/c1cccs1
zone of inhibition at 500 µg/mL (Penicillium chrysogenum [1]): 16 mm
MIC (Penicillium chrysogenum [2]): 400 µg/mL (≈ 2240 µM)
zone of inhibition at 100 µg/mL (Bacillus pumilus [3]): 13 mm
zone of inhibition at 200 µg/mL (Penicillium chrysogenum [4]): 15 mm
zone of inhibition at 200 µg/mL (Bacillus pumilus [5]): 15 mm
MIC (Bacillus subtilis [6]): 300 µg/mL (≈ 1680 µM)
zone of inhibition at 500 µg/mL (Pseudomonas fluorescens [7]): 15 mm
zone of inhibition at 200 µg/mL (Pseudomonas aeruginosa [8]): 13 mm
zone of inhibition at 1500 µg/mL (Escherichia coli [9]): 21 mm
zone of inhibition at 100 µg/mL (Staphylococcus aureus [10]): 11 mm
zone of inhibition at 1500 µg/mL (Aspergillus niger [11]): 19 mm
zone of inhibition at 1500 µg/mL (Penicillium chrysogenum [12]): 19 mm
zone of inhibition at 1000 µg/mL (Bacillus subtilis [13]): 16 mm
zone of inhibition at 500 µg/mL (Bacillus subtilis [14]): 14 mm
zone of inhibition at 100 µg/mL (Micrococcus luteus [15]): 13 mm
zone of inhibition at 100 µg/mL (Penicillium chrysogenum [16]): 13 mm
MIC (Pseudomonas fluorescens [17]): 300 µg/mL (≈ 1680 µM)
zone of inhibition at 200 µg/mL (Staphylococcus aureus [18]): 13 mm
zone of inhibition at 200 µg/mL (Escherichia coli [19]): 16 mm
zone of inhibition at 100 µg/mL (Bacillus subtilis [20]): 10 mm
zone of inhibition at 1000 µg/mL (Pseudomonas fluorescens [21]): 18 mm
zone of inhibition at 1500 µg/mL (Pseudomonas fluorescens [22]): 21 mm
zone of inhibition at 1500 µg/mL (Bacillus subtilis [23]): 22 mm
zone of inhibition at 1500 µg/mL (Staphylococcus aureus [24]): 19 mm
zone of inhibition at 1000 µg/mL (Pseudomonas aeruginosa [25]): 18 mm
MIC (Micrococcus luteus [26]): 200 µg/mL (≈ 1120 µM)
zone of inhibition at 1000 µg/mL (Aspergillus niger [27]): 16 mm

— ChEMBL document CHEMBL3045835, “Comparative study of conventional and microwave-assisted synthesis of some Schiff bases and their potential as antimicrobial agents” (2012)
